Assay results: patent publication US9125406B2, “Methods and compositions for control of cabbage looper, trichoplusia ni” (Simon Fraser University, priority 2008, dated 2015)
Where two headings read alike, the source gives them in different places. Marks after values point to notes of the source that are not given here.

Tests used:
[1] = tested on: third instar T. ni larvae; test: Leaf disk choice feeding deterrence bioassay; assay type: in vivo, Trichoplusia ni; settings: for pest or weed control at 50 µg/cm2, 50 µg/cm2 / pest or weed control at 50 µg/cm2: Trichoplusia, foliar; for pest or weed control at 50 µg/cm2: feeding deterrence (FD), Table 12, non-toxic feeding deterrents, read-out: % deterrence; for DC50: feeding deterrence DC50, unit not given in Table 12
Description: Cabbage plants (Brassica oleraceae var. Stonehead) used in the bioassays were routinely grown in plastic pots with a mixture of sandy loam soil and peat moss (4:1) in a greenhouse at the University of British Columbia, Vancouver, BC, Canada. Leaves were collected from cabbage plants that were 5-6 weeks old.
T. ni larvae and moths were obtained from a long established colony (>50 generations) maintained on an artificial diet, Velvetbean Caterpillar Diet No. F9796 [Bio-Sery Inc. (Frenchtown, NIL)] in the insectary of the University of British Columbia (UBC).
(§1) Initial screening for feeding deterrent effects was conducted at 50 μg/cm^2 in feeding deterrent bioassays.
Larvae were given the choice of feeding on two leaf disks, one treated with 10 μL of a solution of the test substance painted on each side and the other treated with a carrier solvent alone. The number of larvae was 25 per treatment.
Feeding deterrence data (percent) for initial screening concentration were analyzed by analysis of variance (ANOVA) after arcsin transformation using statistics software (Statistix 7. Analytical Software, Statistix 7 for Windows 95, 98, NT, 2000. Analytical Software, Tallahassee).

[2] = tested on: third instar T. ni larvae; test: whole plant or invertebrate; settings: for mortality at 0.25 %: Trichoplusia, topical, 24 h; for % mortality: contact toxicity to larvae, negative or zero values replaced by 0.1 for the index (footnote b)
Experimental: as §1
Mortality was determined 24 h after spraying larvae directly with test solutions. Third instar T. ni larvae were sprayed in 90 mm×15 mm Petri dishes (Falcon) lined with Fisher Scientific filter paper (90 mm diameter). Small plastic hand spraying bottles (50 mL capacity) were used. Larvae were then transferred to Petri dishes (90 mm×15 mm) with a small piece of artificial diet. Each Petri dish contained 10 larvae. Three replicates, each consisting of 10 larvae, were used per treatment.

T. ni moths [3] = test: Oviposition choice (deterrence) bioassay on cabbage leaves; assay type: in vivo, Trichoplusia ni; settings: for pest or weed control at 0.25 %: Trichoplusia, 48 h, oviposition deterrence at 0.25%, read-out: OD (%), mean ± SE (n = 25-33)
Experimental: as §1
T. ni larvae were reared on normal diet from neonates (<24 h old) until pupation. Pupae were sexed and put in separate plastic containers until emergence. After eclosion, pairs of moths (one male and one female) were introduced into each cage with a control and a treated cabbage leaf. Pairs of moths (n=25) were used per treatment. Each leaf (approximately 100-110 cm^2) was sprayed with 0.5 mL of MeOH or a methanolic solution of the test chemical on each side. Eggs were counted on each cabbage leaf after 48 h.

T. ni moths [4] = test: as above; assay type: in vivo, Trichoplusia ni; settings: Trichoplusia, 48 h, at 0.25%, read-out: OD (%) Mean ± SE N = 35-40
[5] = Table 3, 1,4-dialkoxybenzenes, feeding deterrence at 50 μg/cm^2, read-out: FD (%), mean ± SE (n = 25)
[6] = Table 4, 1,3-dialkoxybenzenes, feeding deterrence at 50 μg/cm^2, read-out: FD (%), mean (SE (n = 25))
[7] = read-out: Mortality (%) N = 3 × 10, Table 8
[8] = Table 8, 50 μg/cm^2, read-out: F.D (%) Mean ± SE N = 25
[9] = Table 5, 1,2-dialkoxybenzenes, feeding deterrence at 50 μg/cm^2, read-out: FD (%), mean ± SE (n = 25)
[10] = read-out: mortality (%) (n = 3 × 10), Table 5
[11] = read-out: mortality (%) (n = 3 × 10), Table 3

CCOc1ccc(O)cc1 [2c{2}, 4-Ethoxy phenol]
FD (%), mean ± SE (n = 25) ([1]; Table 3, 1,4-dialkoxybenzenes, feeding deterrence at 50 μg/cm^2): weak feeding deterrent | pest or weed control at 50 µg/cm2, 50 µg/cm2 [1, 5]: 29.8 ± 18.2%

CC(C)CCOc1cccc(OCCC(C)C)c1 [3b{5,5}, 1,3-Di-(3-methyl-butyloxy)benzene]
pest or weed control at 50 µg/cm2, 50 µg/cm2 [1, 6]: -12.2 ± 18.8%

COc1ccc(OC)cc1 [3c{1,1}, 1,4-Dimethoxy benzene]
pest or weed control at 50 µg/cm2, 50 µg/cm2 [1, 5]: 9.9 ± 18%

C=CCOc1ccccc1OCCC [3a{3, 6}, 1-allyloxy-2-propoxybenzene]
mortality at 0.25 % [2, 7]: 17% | % mortality [2]: 10-17 ^a % | pest or weed control at 50 µg/cm2, 50 µg/cm2 [1, 8]: 96 ± 3% | pest or weed control at 50 µg/cm2 [1]: 96% | DC50 [1]: 12-16 ^a μg/cm^2

CCCOc1ccccc1OCCC [3a{3,3}, 1,2-Dipropoxy benzene]
pest or weed control at 50 µg/cm2, 50 µg/cm2 [1, 9]: 26.2 ± 17.6%

CCCCOc1ccccc1OCCCC [3a{4,4}, 1,2-Dibutoxy benzene]
mortality at 0.25 % [2, 10]: 10% | pest or weed control at 0.25 % (T. ni moths [3]; Table 5): 19.6% | pest or weed control at 50 µg/cm2, 50 µg/cm2 [1, 9]: 56.4 ± 13.8%

CC(C)CCOc1ccc(OCCC(C)C)cc1 [3c{5,5}, 1,4-Di-(3-methyl-butyloxy)benzene]
pest or weed control at 50 µg/cm2, 50 µg/cm2 [1, 5]: 44 ± 18.3%

CCCOc1ccc(OCCC)cc1 [3c{3,3}, 1,4-Dipropoxy benzene]
mortality at 0.25 % [2, 11]: 22.6% | % mortality [2]: 23% | pest or weed control at 0.25 % (T. ni moths [3]; Table 3): 11.8 ± 13.1% | pest or weed control at 50 µg/cm2, 50 µg/cm2 [1, 5]: 96 ± 2.8% | pest or weed control at 50 µg/cm2 [1]: 96% | DC50 [1]: 20 μg/cm^2

CCCOc1ccccc1O [2a{3}, 2-Propoxy phenol]
pest or weed control at 50 µg/cm2, 50 µg/cm2 [1, 9]: -12 ± 20%

CC(C)CCOc1ccccc1OCCC(C)C [3a{5,5}, 1,2-Di-(3-methyl-butyloxy)benzene]
mortality at 0.25 % [2, 10]: 40% | pest or weed control at 0.25 % (T. ni moths [3]; Table 5): 11.5% | pest or weed control at 50 µg/cm2, 50 µg/cm2 [1, 9]: 69.9 ± 11.5%

C=CCc1c(OC)cccc1OCCC [5b{3, 1} y (100% y), 1-methoxy-2-allyl-3-propoxy-benzene]
pest or weed control at 0.25 % (T. ni moths [4]; Table 7, second lots and purified isomers): 17 ± 14% | pest or weed control at 50 µg/cm2, 50 µg/cm2 ([1]; Table 7, second lots and purified isomers, 50 μg/cm^2, read-out: F.D (%) Mean ± SE N = 25): 100%

CCOc1cccc(O)c1 [2b{2}, 3-Ethoxy phenol]
pest or weed control at 50 µg/cm2, 50 µg/cm2 [1, 6]: -18.7 ± 17.8%

C=CCOc1ccc(OC)cc1 [3c{1, 6}, 1-allyloxy-4-methoxybenzene]
mortality at 0.25 % [2, 7]: 6% | pest or weed control at 50 µg/cm2, 50 µg/cm2 [1, 8]: 62 ± 15%

C=CCOc1ccc(OCC=C)cc1 [3c{6,6}, 1,4-Diallyloxy benzene]
mortality at 0.25 % [2, 11]: 16% | % mortality [2]: 16% | pest or weed control at 0.25 % (T. ni moths [3]; Table 3): 14.1 ± 13.1% | pest or weed control at 50 µg/cm2, 50 µg/cm2 [1, 5]: 96.9 ± 3.6% | pest or weed control at 50 µg/cm2 [1]: 97% | DC50 [1]: 24 μg/cm^2

C=CCOc1cccc(OCCC(C)C)c1 [3b{5, 6}, 1-allyloxy-3-isopentoxybenzene]
pest or weed control at 0.25 % (T. ni moths [4]; Table 8): 10 ± 13%

C=CCOc1ccc(OCCCC)cc1 [drawing 24]
Oviposition deterrency (T. ni moths [3]; Table 6 summary class, 0.25%): weak (weak, >10%) | Feeding deterrency ([1]; Table 6 summary class, 50 μg/cm^2): strong (Strong feeding deterrency, >80%)

C=CCOc1ccccc1O [2a{6}, 2-Allyloxy phenol]
pest or weed control at 50 µg/cm2, 50 µg/cm2 [1, 9]: 31.1 ± 15.5%

CCCOc1cccc(O)c1 [2b{3}, 3-Propoxy phenol]
pest or weed control at 50 µg/cm2, 50 µg/cm2 [1, 6]: 4 ± 20.4%

C=CCOc1ccccc1OCCC(C)C [3a{5, 6}, 1-allyloxy-2-isopentoxybenzene]
pest or weed control at 0.25 % (T. ni moths [4]; Table 8): 26 ± 13.5%

C=CCOc1ccc(OCCCC)cc1 [3c{6,4}, 1-allyloxy-4-butoxy benzene]
mortality at 0.25 % [2, 11]: 10% | pest or weed control at 0.25 % (T. ni moths [3]; Table 3): 16.8 ± 13.8% | pest or weed control at 50 µg/cm2, 50 µg/cm2 [1, 5]: 84 ± 10.7%

CCOc1cccc(OCC)c1 [3b{2,2}, 1,3-Diethoxy benzene]
mortality at 0.25 % ([2]; read-out: mortality (%) (n = 3 × 10), Table 4): 36.7% | % mortality [2]: 37% | pest or weed control at 0.25 % (T. ni moths [3]; Table 4): 3.4% | pest or weed control at 50 µg/cm2, 50 µg/cm2 [1, 6]: 89.4 ± 8.3% | pest or weed control at 50 µg/cm2 [1]: 89% | DC50 [1]: 29 μg/cm^2
